Data reported in patent US5962475A, “Substituted benzo(B)thiophene compounds having activity as selective estrogen receptor modulators” (Eli Lilly and Company, priority 1997, dated 1999).

Tests used:
[1] = tested on: ovariectomized (OVX) rats, uterus; assay: Uterine weight in ovariectomized rats, four day oral dosing; format: in vivo, Sprague Dawley rats; conditions: for Uterine Weight (% inc. OVX): daily for 4 days, vs OVX control
Procedure: (§1) In the examples illustrating the methods, a post-menopausal model was used in which effects of different treatments upon various biological parameters were determined, including serum cholesterol concentration, uterine weight, estrogen receptor binding, uterine eosinophil peroxidase activity, MCF-7 cell proliferation, and bone density.
(§2) Seventy-five day old female Sprague Dawley rats (weight range of 200 to 225 g) were obtained from Charles River Laboratories (Portage, Mich.). The animals were either bilaterally ovariectomized (OVX) or exposed to a sham surgical procedure (Intact) at Charles River Laboratories, and then shipped after one week. Upon arrival, they were housed in metal hanging cages in groups of 3 or 4 per cage and had ad libi tum access to food (calcium content approximately 0.5%) and water for one week. Room temperature was maintained at 22.20°±1.70° C. with a minimum relative humidity of 40%. The photoperiod in the room was 12 hours light and 12 hours dark.
(§3) After a one week acclimation period (therefore, two weeks post-OVX), daily dosing with test compound was initiated. 17a-Ethynyl estradiol (EE2) (Sigma Chemical Co., St. Louis, Mo.), an orally available form of estrogen, or the test compound were given orally, unless otherwise stated, as a suspension in 1% carboxymethyl cellulose or dissolved in 20% β-cyclodextrin. Animals were dosed daily for 4 days. Following the dosing regimen, animals were weighed and anesthetized with a ketamine:xylazine (2:1, v:v) mixture. A blood sample was collected by cardiac puncture. The animals were then sacrificed by asphyxiation with CO2, the uterus was removed through a midline incision, and a wet uterine weight was determined.
(§4) Data presented in Table 1 below show comparative results among control ovariectomized rats, rats treated with EE2, and rats treated with certain compounds of the present invention. […] This uterine response to estrogen is well recognized in the art.
(§5) The data presented in Table 1 reflect the response of 5 or 6 rats per treatment.

[2] = tested on: uterine eosinophil peroxidase activity; assay: Uterine eosinophil peroxidase (EPO) assay in ovariectomized rats, four day dosing; format: in vivo, Sprague Dawley rats; set-up: Uterine EPO (Vmax): unit not given beside the values; conditions: for Uterine EPO (Vmax): daily for 4 days
Procedure: as §1, §2, §3
Uteri were kept at 4° C. until time of enzymatic analysis. The uteri were then homogenized in 50 volumes of 50 mM Tris buffer (pH--8.0) containing 0.005% Triton X-100. Upon addition of 0.01% hydrogen peroxide and 10 mM o-phenylenediamine (final concentrations) in Tris buffer, increase in absorbance was monitored for one minute at 450 nm. The presence of eosinophils in the uterus, as measured by assay of eosinophil peroxidase activity, is an indication of estrogenic activity of a compound. The maximal velocity of a 15 second interval was determined over the initial, linear portion of the reaction curve.
As is expressed in the data below, estrogenicity also was assessed by evaluating the adverse response of eosinophil infiltration into the uterus.
as §5

serum cholesterol = assay: Serum cholesterol in ovariectomized rats, four day oral dosing; format: in vivo, Sprague Dawley rats; conditions: for Serum Cholesterol (% decrease OVX): daily for 4 days, vs OVX control
Procedure: as §1, §2, §3
Blood samples were allowed to clot at room temperature for 2 hours, and serum was obtained following centrifugation for 10 minutes at 3000 rpm. Serum cholesterol was determined using a Boehringer Mannheim Diagnostics high performance cholesterol assay. Briefly the cholesterol was oxidized to cholest-4-en-3-one and hydrogen peroxide. The hydrogen peroxide was then reacted with phenol and 4-aminophenazone in the presence of peroxidase to produce a p-quinone imine dye, which was read spectrophotemetrically at 500 nm. Cholesterol concentration was then calculated against a standard curve. The entire assay was automated using a Biomek Automated Workstation.
as §4, §5

[3] = tested on: MCF-7 breast adenocarcinoma cells; assay: MCF-7 proliferation assay; format: cell-based; conditions: Homo sapiens, MCF7; MCF-7 cells, tritiated thymidine pulse after 48 hours with compound; read-out: ED50 (the source's name)
Procedure: MCF-7 breast adenocarcinoma cells (ATCC HTB 22) were maintained in MEM (minimal essential medium, phenol red-free, Sigma, St. Louis, Mo.) supplemented with 10% fetal bovine serum (FBS) (V/V), L-glutamine (2 mM), sodium pyruvate (1 mM), HEPES {(N-[2-hydroxyethyl]piperazine-N'-[2-ethanesulfonic acid]10 mM}, non-essential amino acids and bovine insulin (1 μg/ml) (maintenance medium). Ten days prior to assay, MCF-7 cells were switched to maintenance medium supplemented with 10% dextran coated charcoal stripped fetal bovine serum (DCC-FBS) assay medium) in place of 10% FBS to deplete internal stores of steroids. MCF-7 cells were removed from maintenance flasks using cell dissociation medium (Ca++/Mg++ free HBSS (phenol red-free) supplemented with 10 mM HEPES and 2 mM EDTA). Cells were washed twice with assay medium and adjusted to 80,000 cells/ml. […] Serial dilutions of drugs or DMSO as a diluent control were prepared in assay medium and […] to triplicate microcultures followed by […] assay medium for a final volume of […]. After an additional 48 hours at 37° C. in a 5% CO2 humidified incubator, microcultures were pulsed with tritiated thymidine (1 uCi/well) for 4 hours. Cultures were terminated by freezing at -70° C. for 24 hours followed by thawing and harvesting of microcultures. Samples were counted by liquid scintillation.

MCF-7 Estrogen Receptor = molecular target: T1, MCF-7 Estrogen Receptor (Homo sapiens, UniProt P03372); assay: MCF-7 estrogen receptor binding assay, competition with tritiated 17β-estradiol
T1 construct: protein from MCF-7 lysates; endogenous in cells; host or cells: MCF-7 (lysate)
T1 sequence (P03372 1-595): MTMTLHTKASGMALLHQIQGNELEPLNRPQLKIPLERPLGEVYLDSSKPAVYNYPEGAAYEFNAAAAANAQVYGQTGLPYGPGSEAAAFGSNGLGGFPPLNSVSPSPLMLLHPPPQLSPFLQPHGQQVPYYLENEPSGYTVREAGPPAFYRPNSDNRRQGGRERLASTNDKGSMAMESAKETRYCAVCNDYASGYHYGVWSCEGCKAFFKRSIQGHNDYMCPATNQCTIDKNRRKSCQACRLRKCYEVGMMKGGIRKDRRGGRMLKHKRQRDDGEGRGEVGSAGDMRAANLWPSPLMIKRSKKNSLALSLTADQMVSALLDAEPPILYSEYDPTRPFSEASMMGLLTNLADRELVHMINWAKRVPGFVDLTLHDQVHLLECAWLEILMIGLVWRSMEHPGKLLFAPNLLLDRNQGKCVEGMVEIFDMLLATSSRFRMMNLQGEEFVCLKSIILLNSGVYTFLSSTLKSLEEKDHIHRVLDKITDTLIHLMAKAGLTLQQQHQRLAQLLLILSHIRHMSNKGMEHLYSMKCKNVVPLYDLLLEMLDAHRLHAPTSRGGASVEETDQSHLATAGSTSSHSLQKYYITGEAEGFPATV
Procedure: Binding was allowed to take place for 18 hours at 5-- C., followed by the addition of 0.07 mL of dextran/charcoal and centrifugation to remove non-bound radioligand. Aliquots of supernate containing bound radioligand were mixed with scintillant and counted. Relative binding affinity (RBA) was calculated as: [formula]

Row | SMILES | Uterine Weight (% inc. OVX) ([1]; 0.1 mg/kg PO) [%] | action on the uterus / uterine weight, in words ([1]; orally, 0.1 mg/Kg/day) | Uterine EPO (Vmax) ([2]; 0.1 mg/kg PO) | eosinophil infiltration into the uterus, in words ([2]; ovariectomized rats, by assay of eosinophil peroxidase activity) | Serum Cholesterol (% decrease OVX) (serum cholesterol; 0.1 mg/kg PO) [%] | serum cholesterol, in words (serum cholesterol; orally, 0.1 mg/Kg/day) | IC50 [3] [nM] | Uterine Weight (% inc. OVX) ([1]; 1 mg/kg PO) [%] | Uterine Weight (% inc. OVX) ([1]; 10 mg/kg PO) [%] | Uterine EPO (Vmax) ([2]; 1 mg/kg PO) | Uterine EPO (Vmax) ([2]; 10 mg/kg PO) | Serum Cholesterol (% decrease OVX) (serum cholesterol; 1 mg/kg PO) [%] | Serum Cholesterol (% decrease OVX) (serum cholesterol; 10 mg/kg PO) [%] | Relative binding affinity (RBA) (MCF-7 Estrogen Receptor)
1 | C#C[C@]1(O)CC[C@H]2[C@@H]3CCc4cc(O)ccc4[C@H]3CC[C@@]21C [Ethynyl estradiol, 17a-Ethynyl estradiol, reference compound] | 144.1 | marked stimulatory action on the uterus | 123.9 | substantial, expected increase in eosinophil infiltration | 80.3 | decrease in serum cholesterol | – | – | – | – | – | – | – | –
2 | O=C(c1ccc(NCCN2CCCCC2)cc1)c1c(-c2ccc(O)cc2)sc2cc(O)ccc12 [Example 2] | -5.0 | – | 1.8 | – | -0.5 | – | 2 | 15.8 | 35.6 | 2.4 | 2.1 | 13.6 | 42.4 | –
3 | O=C(c1ccc(SCCN2CCCCC2)cc1)c1c(-c2ccc(O)cc2)sc2cc(O)ccc12 [Example 4, 6-hydroxy-2-(4-hydroxyphenyl)-3-[4-(2-(piperidin-1-yl)ethylthio)benzoyl]-benzo[b]thiophene] | 3.5 | – | 3.3 | – | -16.6 | – | 0.9 | 23.1 | 16.7 | 1.2 | 1.8 | 37.5 | 47.5 | –
4 | CN(CCN1CCCCC1)c1ccc(C(=O)c2c(-c3ccc(O)cc3)sc3cc(O)ccc23)cc1 [Example 6, 6-hydroxy-2-(4-hydroxyphenyl)-3-[4-(N-methyl-N-2-(piperidin-1-yl)ethylamino)benzoyl]-benzo[b]thiophene] | 17.1 | – | 4.5 | – | 4.7 | – | 10 | 45.4 | 43.0 | 3.3 | 6.0 | 42.0 | 65.1 | 0.19
5 | COc1ccc(-c2sc3cc(OC)ccc3c2C(=O)c2ccc(S(=O)(=O)CCN3CCCCC3)cc2)cc1 [Example 7, 6-methoxy-2-(4-methoxyphenyl)-3-[4-(2-(piperidin-1-yl)ethylsulfonyl)benzoyl]benzo[b]thiophene] | 26.4 | – | 7.5 | – | -4.4 | – | 1000 | 18.6 | 48.4 | 4.8 | 8.4 | 12.0 | 28.7 | < 0.002
6 | O=C(c1ccc(S(=O)(=O)CCN2CCCCC2)cc1)c1c(-c2ccc(O)cc2)sc2cc(O)ccc12 [Example 8, 6-hydroxy-2-(4-hydroxyphenyl)-3-[4-(2-(piperidin-1-yl)ethylsulfonyl)benzoyl]benzo[b]thiophene] | 16.2 | – | 4.8 | – | -23.3 | – | 30 | 66.9 | 75.0 | 13.5 | 23.1 | 17.2 | 62.3 | –
